Source: patent US20240251785A1, “SMALL MOLECULE ANTAGONISTS AND AGONISTS OF ARTHROPOD KININ RECEPTORS FOR PEST CONTROL” (The Texas A&M University System, priority 2021, published 2024)
Like-named read-outs stand apart in the source and are kept apart here.

How the values were obtained:
[1] = system: Human dermal fibroblasts (HDF) cells; test: Cytotoxicity assay (resazurin); format: cell-based
[2] = system: vector-only (V/O) CHO-K1 cells; test: Dose-response dual-addition calcium fluorescence assay on vector-only cells; format: cell-based
[3] = target: recombinant tick kinin receptor (BMLK3) (Rhipicephalus microplus, UniProt Q9NHA4); test: Dose-response dual-addition calcium fluorescence assay on BMLK3 cells; format: cell-based; details: for inhibition at 12 µM: read-out: Inhibitory Efficacy at 12 μM; for activity type in dose-response assay, in words: Rhimi-K-1 1 μmol L^−1; for validation mark in dose-response assay: Table 3
[4] = system: R. microplus kinin receptor; test: High-throughput dual-addition calcium fluorescence screen on BMLK3 cells; format: cell-based, Rhipicephalus microplus; details: for antagonist Io (%): compound 2 μmol L^−1, 5 min, then FFFSWGa 500 nmol L^−1; for agonist NPA (%): compound 2 μmol L^−1, first addition, relative to FFFSWGa 500 nmol L^−1
[5] = Human dermal fibroblasts cells, tested at 20 μcool L^−1
[6] = V/O cells, second addition Rhimi-K-1 1 μmol L^−1, read-out: V/O antagonist IC50
[7] = summary of 36 validated antagonist hits, vector-only cell (V/O)
[8] = first addition, 20 concentrations 28 nM-25 μM, read-out: BMLK3 EC50
[9] = second addition Rhimi-K-1 1 μmol L^−1, read-out: BMLK3 IC50
[10] = summary of 36 validated antagonist hits, BMLK3 cells, read-out: BMLK3 EC50
[11] = summary of 36 validated antagonist hits, BMLK3 cells, read-out: BMLK3 IC50
[12] = Cricetulus griseus, CHO-K1, summary of 36 validated antagonist hits, vector-only cell (V/O)
[13] = virtual hit molecules, dual-addition assay, vector-only cell (V/O)
[14] = virtual hit molecules, dual-addition assay, vector-only cell (V/O), read-out: V/O antagonist IC50
[15] = virtual hit molecules, dual-addition assay, recombinant tick kinin receptor (BMLK3) cells, read-out: BMLK3 EC50
[16] = virtual hit molecules, dual-addition assay, recombinant tick kinin receptor (BMLK3) cells, read-out: BMLK3 antagonist IC50
[17] = Table 5 analogs, V/O cells, read-out: V/O antagonist IC50
[18] = Table 5 analogs, first addition, read-out: BMLK3 EC50
[19] = Table 5 analogs, second addition Rhimi-K-1 1 μmol L^−1, read-out: BMLK3 antagonist IC50

Sequence of recombinant tick kinin receptor (BMLK3) (Q9NHA4 entry or part of it): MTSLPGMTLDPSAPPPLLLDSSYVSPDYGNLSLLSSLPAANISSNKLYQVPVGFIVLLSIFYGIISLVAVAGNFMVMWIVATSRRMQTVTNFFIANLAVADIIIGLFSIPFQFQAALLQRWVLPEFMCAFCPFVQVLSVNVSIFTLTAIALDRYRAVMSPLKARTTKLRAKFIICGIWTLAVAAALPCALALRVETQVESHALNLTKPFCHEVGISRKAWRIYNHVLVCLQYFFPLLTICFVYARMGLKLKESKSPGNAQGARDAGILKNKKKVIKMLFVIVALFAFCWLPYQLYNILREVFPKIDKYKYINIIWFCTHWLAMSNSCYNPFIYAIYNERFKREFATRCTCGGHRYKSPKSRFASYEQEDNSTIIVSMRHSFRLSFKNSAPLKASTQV

SMILES | Inhibitory Efficacy at 12 μM ([3]; 12 μM, BMLK3 cells) [%] | EC50 [3, 8] [µM] | IC50 [3, 9] [µM] | EC50 [3, 10] [µM] | IC50 [3, 11] [µM] | HDF average % growth inhibition [1, 5] [%] | EC50 ([2]; V/O cells, first addition) [µM] | IC50 [2, 6] [µM] | EC50 [2, 7] [µM] | IC50 [2, 7] [µM] | validation mark in dose-response assay [3] | other results
C[C@@](O)(C#Cc1ccccc1)c1ccc(N2CCCCC2)c(F)c1 [SACC-0006795] | 33.05 | > 25 | 17.3 | > 25 | 17.3 | −1.773 | < 0.0285 | > 25 | < 0.0285 | > 25 | – | antagonist Io (%) [4]: 55%
C/N=c1\[nH]c2cc([N+](=O)[O-])c([N+](=O)[O-])cc2[nH]\c1=N\C [SACC-0010666] | – | – | – | – | – | – | – | – | – | – | – | HDF average % growth inhibition ([1]; human, 48 h, 20 μmol L^−1): −4.62%; EC50 ([2]; Cricetulus griseus, CHO-K1, V/O cells, first addition): 1.35 µM; IC50 ([2]; Cricetulus griseus, CHO-K1, V/O cells, second addition Rhimi-K-1 1 μmol L^−1, read-out: V/O antagonist IC50): 14.9 µM; IC50 [2, 12]: 14.9 µM; EC50 [3]: 0.914 µM; IC50 [3]: 0.808 µM; inhibition at 12 µM [3]: 4.47%
C/C(CCC(C)C)=N\N=C(/S)NCc1ccccc1 [SACC-0018618] | 55.77 | > 25 | 4.29 | > 25 | 4.29 | 7.327 | > 25 | > 25 | > 25 | > 25 | – | activity type in dose-response assay, in words ([3]; BMLK3 cells): full agonist; antagonist Io (%) [4]: 58%
Cc1csc2ncnc(NCCc3ccc(Cl)cc3)c12 [SACC-0039590] | 69.87 | – | – | – | – | −13.23 | – | – | 1.63 | 5.58 | – | EC50 [2, 13]: 1.63 µM; IC50 [2, 14]: 5.58 µM
CCCCCCCCn1c2c(c(=N)c3c1CCC3)CCCC2 [SACC-0050177] | 35.48 | 7.08 | > 25 | 7.08 | > 25 | 38.55 | > 25 | 12.3 | > 25 | 12.3 | – | –
CN1c2ccccc2Oc2nnc(Cl)cc21 [SACC-0075838] | – | 4.37 | 0.0845 | – | – | – | > 25 | > 25 | – | – | *** (molecules which are either off-target or of low activity (<25 μM)) | agonist NPA (%) [4]: 143%
COC(=O)c1cc2c(s1)Oc1cc(C(F)(F)F)ccc1C(=S)N2 [SACC-0081272] | – | 1.48 | < 0.0285 | – | – | – | 0.0485 | > 25 | – | – | *** (molecules which are either off-target or of low activity (<25 μM)) | antagonist Io (%) [4]: 74%
COc1ccc(S(=O)(=O)Nc2ccc(O)c(Sc3nc4ccccc4s3)c2)cc1 [SACC-0089495] | – | – | – | – | – | −2.817 | – | – | – | – | – | IC50 [2, 12]: 5.99 µM; EC50 ([2]; Cricetulus griseus, CHO-K1, virtual hit molecules, dual-addition assay, vector-only cell (V/O)): 9.06 µM; IC50 ([2]; Cricetulus griseus, CHO-K1, virtual hit molecules, dual-addition assay, vector-only cell (V/O), read-out: V/O antagonist IC50): 5.99 µM; inhibition at 12 µM ([3]; 12 μM, BMLK3 cells): 71.3%; EC50 [3, 15]: 3.04 µM; IC50 [3, 16]: 6.53 µM
COc1ccccc1NC(=O)c1cn(CCC#N)nc1-c1ccc(C)c(C)c1 [SACC-0095111] | – | > 25 | 3.32 | – | – | – | > 25 | 7.33 | – | – | *** (molecules which are either off-target or of low activity (<25 μM)) | agonist NPA (%) [4]: 71%
NC(N)=N/C(N)=N\c1ccc(Br)cc1 [SACC-0108986] | – | 0.684 | 0.363 | – | – | – | 0.132 | 3.87 | – | – | *** (molecules which are either off-target or of low activity (<25 μM)) | antagonist Io (%) [4]: 53%
O=C1C=CC(Nc2ccc([N+](=O)[O-])cc2)C1Nc1ccc([N+](=O)[O-])cc1 (stereo not drawn) [SACC-0121252] | 42.68 | 0.177 | > 25 | 0.177 | > 25 | 4.83 | > 25 | 2.53 | > 25 | 2.53 | – | –
O=C(O)COc1ccccn1 [SACC-0126930] | – | < 0.0285 | > 25 | – | – | – | 0.761 | < 0.0285 | – | – | *** (molecules which are either off-target or of low activity (<25 μM)) | agonist NPA (%) [4]: 133%
Cc1ccc(C=C2SC(=S)N(NS(=O)(=O)c3ccc(C)cc3)C2=O)cc1 [SACC-0412061] | 48.16 | – | – | 0.978 | 0.509 | −1.013 | – | – | 5.5 | 2.71 | – | EC50 ([2]; Table 5 analogs, V/O cells): 5.5 µM; IC50 [2, 17]: 2.71 µM; activity type in dose-response assay, in words ([3]; BMLK3 cells): partial antagonists; EC50 [3, 18]: 0.978 µM; IC50 [3, 19]: 0.509 µM
Cc1ccc(S(=O)(=O)NN2C(=O)C(=Cc3ccc(F)cc3)SC2=S)cc1 [SACC-0412063] | 0.61 | – | – | 24.2 | 0.627 | 2.277 | – | – | 1.21 | > 25 | – | EC50 ([2]; Table 5 analogs, V/O cells): 1.21 µM; IC50 [2, 17]: > 25 µM; activity type in dose-response assay, in words ([3]; BMLK3 cells): very weak partial antagonists; EC50 [3, 18]: 24.2 µM; IC50 [3, 19]: 0.627 µM

The next lines start with results.

Inhibitory Efficacy at 12 μM ([3]; 12 μM, BMLK3 cells) [%] | EC50 [3, 8] [µM] | IC50 [3, 9] [µM] | EC50 [3, 10] [µM] | IC50 [3, 11] [µM] | SMILES | HDF average % growth inhibition [1, 5] [%] | EC50 ([2]; V/O cells, first addition) [µM] | IC50 [2, 6] [µM] | EC50 [2, 7] [µM] | IC50 [2, 7] [µM] | validation mark in dose-response assay [3] | other results
26.16 | – | – | 1.96 | 6.22 | Cc1ccc(S(=O)(=O)Nc2ccc3nc(N)sc3c2)cc1 [SACC-0034373] | −7 | – | – | 2.49 | > 25 | – | EC50 [2, 13]: 2.49 µM; IC50 [2, 14]: > 25 µM; EC50 [3, 15]: 1.96 µM; IC50 [3, 16]: 6.22 µM
37.34 | – | – | < 0.0285 | 3.69 | CCN1C=C/C(=C\C=C\c2cc[n+](CC)c3ccccc23)c2ccccc21 [SACC-0054132] | 9.037 | – | – | 2.56 | 0.207 | – | EC50 [2, 13]: 2.56 µM; IC50 [2, 14]: 0.207 µM; EC50 [3, 15]: < 0.0285 µM; IC50 [3, 16]: 3.69 µM
– | 0.743 | 4.15 | – | – | Cc1cc(N=CN(C)C)c2ccccc2n1 [SACC-0068485] | – | 3.77 | 0.549 | – | – | *** (molecules which are either off-target or of low activity (<25 μM)) | antagonist Io (%) [4]: 56%
– | > 25 | > 25 | – | – | COc1ccc(-c2nc(CN3CCN(C(=O)c4ccc5c(c4)NC(=O)[C@H](C)S5)CC3)cs2)cc1 [SACC-0088454] | – | > 25 | 14.4 | – | – | *** (molecules which are either off-target or of low activity (<25 μM)) | antagonist Io (%) [4]: 57%
– | > 25 | > 25 | – | – | COc1ccccc1-n1nnnc1S[C@@H](C)C(=O)c1ccc2c(c1)CCN2C(C)=O [SACC-0095062] | – | > 25 | < 0.0285 | – | – | *** (molecules which are either off-target or of low activity (<25 μM)) | agonist NPA (%) [4]: 47%
– | 0.974 | 1.88 | – | – | COc1ccccc1NC(=O)c1cc2ccccc2cc1OCc1nnnn1C1CC1 [SACC-0095102] | – | < 0.0285 | 2.21 | – | – | *** (molecules which are either off-target or of low activity (<25 μM)) | agonist NPA (%) [4]: 145%
71.31 | – | – | 5.4 | 7.17 | CSc1nc2ccc(NS(=O)(=O)c3ccc(Cl)s3)cc2s1 [SACC-0099442] | −1.16 | – | – | 10.8 | 1.12 | – | EC50 [2, 13]: 10.8 µM; IC50 [2, 14]: 1.12 µM; activity type in dose-response assay, in words ([3]; BMLK3 cells): full agonist; EC50 [3, 15]: 5.4 µM; IC50 [3, 16]: 7.17 µM
– | 12 | 10.9 | – | – | O=C(CCc1nc(-c2cccs2)no1)Nc1ccc(-n2cnc3ccccc32)nc1 [SACC-0114394] | – | 4.19 | 4.32 | – | – | *** (molecules which are either off-target or of low activity (<25 μM)) | agonist NPA (%) [4]: 152%
– | 0.299 | > 25 | – | – | O=C(Cn1cnc2ccccc21)NCc1ccc(OCc2ccccc2)cc1 [SACC-0115325] | – | > 25 | > 25 | – | – | *** (molecules which are either off-target or of low activity (<25 μM)) | antagonist Io (%) [4]: 83%
– | 1.74 | < 0.0285 | – | – | O=C(NC(=S)NNC(=O)c1cc(-c2ccccc2)nc2ccccc12)c1cccs1 [SACC-0117741] | – | 1.89 | 1.49 | – | – | *** (molecules which are either off-target or of low activity (<25 μM)) | agonist NPA (%) [4]: 127%
59.47 | 5.73 | 8.51 | 5.73 | 8.51 | O=C(O)COc1ccc(Br)cc1/C=N/Nc1cccc2cccnc12 [SACC-0126875] | 7.477 | 4.61 | > 25 | 4.61 | > 25 | – | –
